According to paper PMC4770311, “Discovery and Characterization of GSK2801, a Selective Chemical Probe for the Bromodomains BAZ2A and BAZ2B” (Journal of Medicinal Chemistry, 2015):
Several values for one entry are separate records, joined by “and”; a condition that tells them apart may be missing. Equal values may be shown once.

Columns and labels:
BRD9 [1] = target: T1, BRD9 (Homo sapiens, UniProt Q9H8M2); experiment: AlphaScreen cross screening BRD9; type: binding; conditions: average of three replicates ± SEM
T1 construct: ITC experiments using the bromodomain of BRD9
Experimental: (§1) AlphaScreen: AlphaScreen was performed as described previously 10, with minor modifications from the manufacturers protocol (PerkinElmer, USA). Briefly, all reagents were diluted in the recommended buffer (50 mM HEPES, 100 mM NaCl, 0.1% BSA; pH = 7.4) supplemented with 0.05% CHAPS and allowed to equilibrate to room temperature prior to […]
(§2) Plates were sealed and incubated at room temperature for 30 min. 4 μL of streptavidin-coated donor beads (10ug/mL final) and 4 μL of nickel chelate acceptor beads (10 μg/ml final) were then added under low light conditions. Plates were foil sealed to protect from light, incubated at room temperature for 60 min and read on a PHERAstar FS plate reader (BMG Labtech, Germany) using an AlphaScreen 680 excitation/570 emission filter set.
(§3) Fragments were dissolved in ethylene glycol to overcome sensitivity of the bromodomain assay to DMSO and allow compounds to be screened at mM concentrations. IC50 […]
(§4) measurements were taken over a 12 point 1:2 serial dilution of compound. IC50s were calculated in GraphPad Prism 5 (GraphPad Software, USA). […]

BRD4(1) = target: T2, BRD4(1) (Homo sapiens, UniProt O60885); experiment: AlphaScreen cross screening BRD4(1); type: binding; conditions: average of three replicates ± SEM
T2 construct: […]
Experimental: as §1, §2, §3, §4

BAZ2A [2] = target: T3, BAZ2A (Homo sapiens, UniProt Q9UIF9); experiment: AlphaScreen assay BAZ2A; type: binding; conditions: average of three replicates ± SEM
T3 construct: Recombinant BAZ2A and BAZ2B bromodomains were expressed in; made in house; host or cells: E. coli
T3 sequence (Q9UIF9 1793-1897 limits assumed): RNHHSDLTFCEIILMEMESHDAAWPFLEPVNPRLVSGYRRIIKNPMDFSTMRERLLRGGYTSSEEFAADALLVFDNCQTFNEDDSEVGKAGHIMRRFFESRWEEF
Experimental: as §1, §2, §3, §4

BRD9 [3] = target: T4, BRD9 (Homo sapiens, UniProt Q9H8M2); experiment: Chemoproteomic competition binding assay, endogenous BRD9; conditions: HuT78 extracts; competition with affinity matrix
T4 construct: endogenous in cells; host or cells: HuT78
T4 sequence (Q9H8M2 1-597): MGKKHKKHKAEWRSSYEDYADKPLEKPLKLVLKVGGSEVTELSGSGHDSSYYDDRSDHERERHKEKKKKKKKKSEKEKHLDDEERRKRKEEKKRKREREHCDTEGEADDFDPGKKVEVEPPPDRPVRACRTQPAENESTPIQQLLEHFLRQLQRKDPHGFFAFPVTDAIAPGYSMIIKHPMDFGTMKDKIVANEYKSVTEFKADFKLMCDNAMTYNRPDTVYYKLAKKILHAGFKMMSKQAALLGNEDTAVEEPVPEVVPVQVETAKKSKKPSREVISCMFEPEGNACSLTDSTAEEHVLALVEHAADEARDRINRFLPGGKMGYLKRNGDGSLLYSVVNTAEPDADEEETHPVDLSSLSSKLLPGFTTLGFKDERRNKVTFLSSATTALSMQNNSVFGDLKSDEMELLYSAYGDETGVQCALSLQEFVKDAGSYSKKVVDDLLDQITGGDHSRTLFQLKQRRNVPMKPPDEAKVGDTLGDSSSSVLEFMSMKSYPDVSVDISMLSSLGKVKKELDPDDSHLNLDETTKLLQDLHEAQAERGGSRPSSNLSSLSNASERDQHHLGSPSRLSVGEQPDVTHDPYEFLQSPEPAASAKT

SMARCA2 and 4 = experiment: Chemoproteomic competition binding assay, endogenous SMARCA2 and 4; conditions: HuT78 extracts; likely indirect via BRD9 in BAF complex
BAZ2A [4] = target: BAZ2A (Homo sapiens, UniProt Q9UIF9); experiment: Chemoproteomic competition binding assay, endogenous BAZ2A; conditions: up to a concentration of 50 μM; HuT78 extracts
Target sequence in this assay (Q9UIF9 whole entry): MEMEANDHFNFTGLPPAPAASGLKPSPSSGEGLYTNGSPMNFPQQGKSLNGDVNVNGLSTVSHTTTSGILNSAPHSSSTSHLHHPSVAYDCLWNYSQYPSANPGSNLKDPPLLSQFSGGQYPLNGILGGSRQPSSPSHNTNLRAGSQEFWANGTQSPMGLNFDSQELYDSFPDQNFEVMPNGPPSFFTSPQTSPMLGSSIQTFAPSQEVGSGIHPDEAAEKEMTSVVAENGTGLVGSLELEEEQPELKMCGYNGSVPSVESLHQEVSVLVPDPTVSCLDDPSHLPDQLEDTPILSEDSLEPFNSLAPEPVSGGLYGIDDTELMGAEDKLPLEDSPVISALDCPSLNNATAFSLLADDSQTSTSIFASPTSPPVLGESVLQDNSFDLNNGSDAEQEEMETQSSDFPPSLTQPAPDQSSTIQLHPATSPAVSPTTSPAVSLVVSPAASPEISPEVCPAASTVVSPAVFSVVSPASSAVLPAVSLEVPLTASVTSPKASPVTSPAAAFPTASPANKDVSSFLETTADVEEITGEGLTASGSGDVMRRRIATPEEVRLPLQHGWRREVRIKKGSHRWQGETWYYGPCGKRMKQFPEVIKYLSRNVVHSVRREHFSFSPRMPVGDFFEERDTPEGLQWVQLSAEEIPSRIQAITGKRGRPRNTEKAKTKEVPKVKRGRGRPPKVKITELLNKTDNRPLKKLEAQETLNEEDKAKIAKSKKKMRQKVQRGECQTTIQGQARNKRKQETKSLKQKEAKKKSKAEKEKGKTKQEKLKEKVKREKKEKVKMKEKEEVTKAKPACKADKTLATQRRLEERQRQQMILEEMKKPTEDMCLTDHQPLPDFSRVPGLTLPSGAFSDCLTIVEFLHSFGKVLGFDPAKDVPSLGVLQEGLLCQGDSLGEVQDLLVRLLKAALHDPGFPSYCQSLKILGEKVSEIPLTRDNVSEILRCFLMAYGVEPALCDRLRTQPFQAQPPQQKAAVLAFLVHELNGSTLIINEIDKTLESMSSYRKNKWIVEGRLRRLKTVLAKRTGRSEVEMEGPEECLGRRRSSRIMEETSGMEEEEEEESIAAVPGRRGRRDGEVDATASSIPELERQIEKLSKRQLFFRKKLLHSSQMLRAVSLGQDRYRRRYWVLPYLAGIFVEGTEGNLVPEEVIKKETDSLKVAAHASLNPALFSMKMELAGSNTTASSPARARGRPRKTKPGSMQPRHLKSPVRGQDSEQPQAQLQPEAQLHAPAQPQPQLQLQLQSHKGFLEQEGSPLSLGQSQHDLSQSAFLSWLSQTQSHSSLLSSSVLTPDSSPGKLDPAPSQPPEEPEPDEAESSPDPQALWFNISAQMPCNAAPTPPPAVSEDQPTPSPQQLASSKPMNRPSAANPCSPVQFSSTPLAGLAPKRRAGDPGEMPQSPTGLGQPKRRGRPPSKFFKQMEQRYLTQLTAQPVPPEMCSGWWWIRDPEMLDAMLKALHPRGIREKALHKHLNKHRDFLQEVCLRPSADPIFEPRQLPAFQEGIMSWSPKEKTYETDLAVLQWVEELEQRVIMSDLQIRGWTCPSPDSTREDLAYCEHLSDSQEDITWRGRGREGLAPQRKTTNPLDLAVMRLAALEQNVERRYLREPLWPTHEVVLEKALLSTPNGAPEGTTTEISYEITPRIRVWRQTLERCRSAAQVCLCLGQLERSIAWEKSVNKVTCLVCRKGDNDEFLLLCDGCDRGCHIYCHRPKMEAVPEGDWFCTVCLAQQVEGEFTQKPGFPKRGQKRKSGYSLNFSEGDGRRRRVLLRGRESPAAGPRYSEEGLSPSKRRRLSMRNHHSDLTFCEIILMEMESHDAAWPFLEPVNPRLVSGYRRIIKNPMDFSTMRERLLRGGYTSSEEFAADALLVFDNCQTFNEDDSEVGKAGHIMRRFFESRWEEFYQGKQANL

BAZ2B = BAZ2B (Homo sapiens, UniProt Q9UIF8); experiment: Chemoproteomic competition binding assay, endogenous BAZ2B; conditions: up to a concentration of 50 μM; HuT78 extracts
BAZ2B, sequence (Q9UIF8 whole entry): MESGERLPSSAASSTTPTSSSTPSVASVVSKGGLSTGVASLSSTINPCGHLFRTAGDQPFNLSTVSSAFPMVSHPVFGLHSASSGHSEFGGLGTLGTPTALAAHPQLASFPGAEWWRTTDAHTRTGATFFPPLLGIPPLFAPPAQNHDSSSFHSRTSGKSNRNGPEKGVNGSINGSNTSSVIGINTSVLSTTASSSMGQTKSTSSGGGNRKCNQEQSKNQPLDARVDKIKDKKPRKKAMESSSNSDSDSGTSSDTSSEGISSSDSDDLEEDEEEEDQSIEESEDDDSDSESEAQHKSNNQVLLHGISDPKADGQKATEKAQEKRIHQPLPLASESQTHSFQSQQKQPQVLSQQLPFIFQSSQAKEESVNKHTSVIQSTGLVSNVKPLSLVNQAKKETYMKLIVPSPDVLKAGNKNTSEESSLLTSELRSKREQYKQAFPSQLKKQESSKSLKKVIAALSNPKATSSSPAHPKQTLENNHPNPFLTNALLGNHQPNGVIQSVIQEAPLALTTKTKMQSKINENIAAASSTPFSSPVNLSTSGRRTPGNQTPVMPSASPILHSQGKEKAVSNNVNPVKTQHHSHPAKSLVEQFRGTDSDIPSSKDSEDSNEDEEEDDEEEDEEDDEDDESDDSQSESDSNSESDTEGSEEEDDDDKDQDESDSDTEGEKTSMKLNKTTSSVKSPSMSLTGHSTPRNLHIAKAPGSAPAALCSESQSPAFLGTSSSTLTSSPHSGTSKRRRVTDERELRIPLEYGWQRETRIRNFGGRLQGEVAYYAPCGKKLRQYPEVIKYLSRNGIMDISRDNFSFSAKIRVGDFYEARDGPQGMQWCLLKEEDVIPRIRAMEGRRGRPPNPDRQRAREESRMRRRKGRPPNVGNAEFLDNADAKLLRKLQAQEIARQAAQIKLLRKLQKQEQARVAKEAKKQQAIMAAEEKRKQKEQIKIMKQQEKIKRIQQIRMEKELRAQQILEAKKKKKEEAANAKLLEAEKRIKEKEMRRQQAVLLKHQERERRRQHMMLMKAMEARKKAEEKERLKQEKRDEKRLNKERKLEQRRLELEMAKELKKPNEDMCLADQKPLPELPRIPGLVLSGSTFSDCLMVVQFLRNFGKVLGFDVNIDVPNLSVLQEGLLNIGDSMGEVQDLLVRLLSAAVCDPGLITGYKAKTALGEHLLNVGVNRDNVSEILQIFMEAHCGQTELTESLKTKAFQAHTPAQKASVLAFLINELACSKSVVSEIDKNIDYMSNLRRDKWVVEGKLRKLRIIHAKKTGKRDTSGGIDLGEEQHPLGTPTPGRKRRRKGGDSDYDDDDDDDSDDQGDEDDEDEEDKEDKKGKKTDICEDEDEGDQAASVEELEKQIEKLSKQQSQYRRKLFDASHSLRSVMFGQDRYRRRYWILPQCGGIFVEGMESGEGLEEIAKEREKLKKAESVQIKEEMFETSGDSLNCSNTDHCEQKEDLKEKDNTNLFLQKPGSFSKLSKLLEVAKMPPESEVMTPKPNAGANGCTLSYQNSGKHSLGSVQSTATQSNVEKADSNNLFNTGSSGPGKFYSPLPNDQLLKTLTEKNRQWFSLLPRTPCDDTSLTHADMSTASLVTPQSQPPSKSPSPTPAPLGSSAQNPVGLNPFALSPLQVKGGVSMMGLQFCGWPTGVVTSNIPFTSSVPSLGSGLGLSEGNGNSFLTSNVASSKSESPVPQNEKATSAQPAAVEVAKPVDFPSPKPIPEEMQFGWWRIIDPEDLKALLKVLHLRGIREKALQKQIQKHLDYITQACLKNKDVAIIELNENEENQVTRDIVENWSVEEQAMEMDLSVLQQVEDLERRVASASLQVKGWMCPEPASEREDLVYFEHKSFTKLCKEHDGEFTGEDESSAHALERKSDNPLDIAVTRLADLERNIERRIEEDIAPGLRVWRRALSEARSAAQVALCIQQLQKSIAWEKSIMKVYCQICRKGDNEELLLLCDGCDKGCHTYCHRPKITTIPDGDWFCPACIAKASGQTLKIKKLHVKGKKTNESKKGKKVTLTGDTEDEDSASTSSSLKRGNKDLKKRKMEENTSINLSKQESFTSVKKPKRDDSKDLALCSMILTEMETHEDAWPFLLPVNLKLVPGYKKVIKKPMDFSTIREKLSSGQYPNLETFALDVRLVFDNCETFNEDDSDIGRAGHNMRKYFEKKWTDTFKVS

BRD9 [5] = target: T1, BRD9; experiment: Isothermal titration calorimetry BRD9; type: binding; conditions: ITC
Experimental: VP-ITC (MicroCal) at 15 °C.
reaction cell containing the inhibitors (15 µM). Integrated heat of the titrations after corrected
modifications from the manufacturers protocol (PerkinElmer, USA). Briefly, all reagents were
final) were then added under low light conditions. Plates were foil sealed to protect from […]

[6] = tested on: panel of biotin-labeled bromodomains; conditions: two concentrations, 0.2 and 1.0 μM
Experimental: measurements were taken over a 12 point 1:2 serial dilution of compound. IC50s were calculated in GraphPad Prism 5 (GraphPad Software, USA).
Biolayer interference assays. BAZ2A and BAZ2B were expressed in frame with a C- […]
of a single biotin using the biotin ligase (BirA) which has been co-expressed in E. coli using the co-expression vector BL21(DE3)-R3-pRARE2-BirA. Cells were grown in the presence of 0.1 mM biotin and were lysed and purified using a similar procedure as described for the non-biotin labelled protein.
The biotin labelled BAZ2B and BAZ2A was immobilized on SuperStreptavidin BLI sensors.
BioLayer Interferometry (BLI) experiments were performed on a 16-channel ForteBio Octet […]
buffer. The reference sensors without attached bromodomain were used to subtract background binding to SuperStreptavidin sensors. Data were processed and analysed using ForteBio Analysis software.
Determination of PK profiles for GSK2801 after IP (intraperitoneal) and PO (oral) administrations to male CD-1 mice: These PK studies were performed by the DMPK […]
The IP and PO dosing solutions were prepared in 0.5%
Test system: CD-1 mice, 28-32g, male, N=18, purchased from SLAC Laboratory Animal Co.
LTD. The animals were given free access to food and water. A dose of 30 mg/kg (10 mL/kg) was used via intraperitoneal injection (N=9) and for oral dosing 30 mg/kg (10 mL/kg) via gavage (N=9). […]

TAF1L(2) = target: T5, TAF1L(2) (Homo sapiens, UniProt Q8IZX4); experiment: Isothermal titration calorimetry TAF1L(2); type: binding; conditions: ITC
T5 construct: the second bromodomain in TAF1L(2)
T5 sequence (Q8IZX4 1517-1626 limits assumed): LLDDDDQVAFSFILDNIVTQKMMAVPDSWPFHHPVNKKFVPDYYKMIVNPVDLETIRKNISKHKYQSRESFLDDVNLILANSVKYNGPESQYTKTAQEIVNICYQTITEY
Experimental: Thermal stability shift assays: The recombinant bromodomains at 2 µM were mixed with 10 µM inhibitors. The assays and data evaluation for melting temperatures were performed using a Real-Time PCR Mx3005p machine (Stratagene) and the protocols previously […]
Isothermal titration calorimetry: All calorimetric titration experiments were carried out on VP-ITC (MicroCal) at 15 °C. The buffer condition used was 20 mM HEPES, pH 7.5, 150 mM NaCl and 0.5 mM TCEP. Titration was performed by injecting the proteins (200 µM) into a […]
Integrated heat of the titrations after corrected for the heat of dilution were analysed using the Origin program. The corrected data were fitted to a single binding site model using a nonlinear least-square minimization algorithm, and the binding parameters including reaction enthalpy changes (ΔH), reaction […] changes (TΔS), equilibrium dissociation constants (KD), stoichiometry (n) were calculated.
AlphaScreen: AlphaScreen was performed as described previously 10, with minor modifications from the manufacturers protocol (PerkinElmer, USA). […]
Plates were sealed and incubated at room temperature for 30 min. […] Plates were foil sealed to protect from light, incubated at room temperature for 60 min and read on a PHERAstar FS plate reader (BMG Labtech, Germany) using an AlphaScreen 680 excitation/570 emission filter set. […]

BRD9 [7] = target: T1, BRD9; experiment: Thermal stability shift assay BRD9; type: binding; conditions: inhibitor concentration 10 μM; read-out: temperature shift (ΔTm) BRD9

## CC(=O)c1cc(-c2ccccc2S(C)(=O)=O)c2cc(Oc3ccccc3)ccn12 [Compound 20, 1-(1-(2-(methylsulfonyl)phenyl)-7-phenoxyindolizin-3-yl)ethanone]
BRD9 [1]
  IC50: 19.9 ± 1.84 µM
BRD4(1)
  IC50: > 50 µM
BAZ2A [2]
  IC50: 0.55 µM

## COc1ccn2c(C(C)=O)cc(-c3ccccc3CO)c2c1 [Compound 14, 1-(1-(2-(hydroxymethyl)phenyl)-7-methoxyindolizin-3-yl)ethanone]
BAZ2A [2]
  IC50: 1.2 ± 0.01 µM

## CC(=O)c1cc(-c2ccc(CO)cc2)c2ccccn12 [Compound 10, 1-(1-(4-(hydroxymethyl)phenyl)indolizin-3-yl)ethanone]
BAZ2A [2]
  IC50: 1.2 ± 0.07 µM

## CC(=O)c1cc(-c2ccccc2O)c2ccccn12 [Compound 5, 1-(1-(2-hydroxyphenyl)indolizin-3-yl)ethanone]
BAZ2A [2]
  IC50: 7.2 ± 0.06 µM

## CC(=O)c1cc(-c2ccccc2S(C)(=O)=O)c2ccccn12 [Compound 12, 1-(1-(2-(methylsulfonyl)phenyl)indolizin-3-yl)ethanone]
BRD9 [1]
  IC50: 17.9 ± 3.85 µM
BRD4(1)
  IC50: > 50 µM
BAZ2A [2]
  IC50: 0.72 ± 0.07 µM

## COc1cccc(-c2cc(C(C)=O)n3ccccc23)c1 [Compound 3, 1-(1-(3-Methoxyphenyl)indolizin-3-yl)ethanone]
BAZ2A [2]
  IC50: > 30 µM

## CC(=O)c1cc(-c2cccc(C(N)=O)c2)c2ccccn12 [Compound 8, 3-(3-acetylindolizin-1-yl)benzamide]
BAZ2A [2]
  IC50: 1.8 ± 0.02 µM

## CC(=O)c1cc(-c2cccc(O)c2)c2ccccn12 [Compound 6, 1-(1-(3-hydroxyphenyl)indolizin-3-yl)ethanone]
BAZ2A [2]
  IC50: 3.3 ± 0.05 µM

## CC(=O)c1cc(-c2ccc(N(C)C)cc2)c2ccccn12 [Compound 11, 1-(1-(4-(dimethylamino)phenyl)indolizin-3-yl)ethanone]
BAZ2A [2]
  IC50: 1.1 ± 0.07 µM

## CC(=O)c1cc(-c2ccccc2CO)c2cc(C)ccn12 [Compound 13, 1-(1-(2-(hydroxymethyl)phenyl)-7-methylindolizin-3-yl)ethanone]
BAZ2A [2]
  IC50: 1 ± 0.09 µM

## CCCOc1ccn2c(C(C)=O)cc(-c3cccc(OC)c3)c2c1 [Compound 23, 1-(1-(3-Methoxyphenyl)-7-propoxyindolizin-3-yl)ethanone]
BRD9 [3]
  pKd BRD9: 4.5
SMARCA2 and 4
  pKd SMARCA2 and 4: 4.8
BAZ2A [4]
  binding to endogenous BAZ2A: did not show any binding
BAZ2B
  binding to endogenous BAZ2B: did not show any binding
BRD9 [5]
  Kd: 1.04 µM
  binding enthalpy change ΔH BRD9: −8.98 (± 0.152) kcal/mol
[6]
  selectivity in BLI bromodomain panel: inactive against BAZ2A/B and all other bromodomains except BRD9

## CC(=O)c1cc(-c2ccccc2S(C)(=O)=O)c2cc(CNC(=O)OC(C)(C)C)ccn12 [Compound 18, tert-butyl ((3-acetyl-1-(2-(methylsulfonyl)phenyl)indolizin-7-yl)methyl)carbamate]
BRD9 [1]
  IC50: 1.4 ± 0.04 µM
BRD4(1)
  IC50: > 50 µM
BAZ2A [2]
  IC50: 0.16 ± 0.05 µM

## CC(=O)c1cc(-c2ccccc2CO)c2cc(N3CCOCC3)ccn12 [Compound 15, 1-(1-(2-(hydroxymethyl)phenyl)-7-morpholinoindolizin-3-yl)ethanone]
BAZ2A [2]
  IC50: 1.7 ± 0.13 µM

## CC(=O)c1cc(-c2ccccc2CO)c2cc(Oc3ccccc3)ccn12 [Compound 17, 1-(1-(2-(hydroxymethyl)phenyl)-7-phenoxyindolizin-3-yl)ethanone]
BAZ2A [2]
  IC50: 4.1 ± 0.06 µM

## CC(=O)c1cc(-c2ccccc2CO)c2cc(C(N)=O)ccn12 [Compound 16, 3-acetyl-1-(2-(hydroxymethyl)phenyl)indolizine-7-carboxamide]
BAZ2A [2]
  IC50: 4.1 ± 0.09 µM

## CCCOc1ccn2c(C(C)=O)cc(-c3ccccc3S(C)(=O)=O)c2c1 [Compound 19, 1-(1-(2-(methylsulfonyl)phenyl)-7-propoxyindolizin-3-yl)ethanone]
BRD9 [1]
  IC50: > 50 µM
TAF1L(2)
  binding enthalpy change ΔH TAF1L(2): −8.6 (±0.02) kcal/mol
TAF1L(2); listed as GSK2801
  Kd: 3.2 µM and 3.19 µM
BRD4(1)
  IC50: > 50 µM
BRD9 [5]
  binding enthalpy change ΔH BRD9: −9.8 (±0.01) kcal/mol
BRD9 [5]; listed as GSK2801
  Kd: 1.2 µM
BRD9 [7]
  ΔTm at 10 µM: 2.3 °C

## COc1ccc(-c2cc(C(C)=O)n3ccccc23)c(CO)c1 [Compound 9, 1-(1-(2-(hydroxymethyl)-4-methoxyphenyl)indolizin-3-yl)ethanone]
BAZ2A [2]
  IC50: 1.4 ± 0.01 µM

## COc1ccn2c(C(C)=O)cc(-c3ccccc3S(C)(=O)=O)c2c1 [Compound 21, 1-(7-methoxy-1-(2-(methylsulfonyl)phenyl)indolizin-3-yl)ethanone]
BRD9 [1]
  IC50: > 50 µM
BRD4(1)
  IC50: > 50 µM
BAZ2A [2]
  IC50: 0.58 ± 0.05 µM

## CC(=O)c1cc(-c2ccccc2CO)c2ccccn12 [Compound 7, 1-(1-(2-(hydroxymethyl)phenyl)indolizin-3-yl)ethanone]
BRD9 [1]
  IC50: 23.7 ± 0.16 µM
BRD4(1)
  IC50: 38.9 ± 13.3 µM
BAZ2A [2]
  IC50: 1.8 ± 0.05 µM

## CC(=O)c1cc(-c2cccs2)c2ccccn12 [Compound 4, 1-(1-(Thiophen-2-yl)indolizin-3-yl)ethanone]
BAZ2A [2]
  IC50: 8.6 ± 0.01 µM

## CC(=O)c1cc(-c2ccccc2S(C)(=O)=O)c2cc(C)ccn12 [Compound 22, 1-(7-methyl-1-(2-(methylsulfonyl)phenyl)indolizin-3-yl)ethanone]
BAZ2A [2]
  IC50: 0.89 µM
